Measured values taken from the NIST ThermoML archive (doi:10.1016/j.tca.2014.07.025).
Numbers after ± are expanded uncertainties.

Assay: mn = molality of the nth substance listed, in mol/kg
Details: 100 kPa, Liquid; for speed of sound: Frequency=3 MHz, Sing-around technique in a fixed-path interferometer; for mass density: Vibrating tube method

NCC(=O)NCC(=O)O [glycylglycine] + O
Details | mass density, 305.15 K [kg/m3] | mass density, 310.15 K [kg/m3] | mass density, 315.15 K [kg/m3] | speed of sound, 305.15 K [m/s] | speed of sound, 310.15 K [m/s] | speed of sound, 315.15 K [m/s]
m1 = 0.00206 | 995.2 ± 0.61 | 993.513 ± 0.61 | 991.618 ± 0.61 | 1514.1 ± 1.3 | 1524.1 ± 1.3 | 1532.4 ± 1.3
m1 = 0.00597 | 995.41 ± 0.61 | 993.721 ± 0.61 | 991.824 ± 0.61 | 1514.8 ± 1.3 | 1524.7 ± 1.3 | 1532.9 ± 1.3
m1 = 0.00797 | 995.517 ± 0.61 | 993.827 ± 0.61 | 991.929 ± 0.61 | 1515.2 ± 1.3 | 1525.1 ± 1.3 | 1533.5 ± 1.3
m1 = 0.01021 | 995.637 ± 0.61 | 993.946 ± 0.61 | 992.047 ± 0.61 | 1515.4 ± 1.3 | 1525.2 ± 1.3 | 1533.6 ± 1.3
m1 = 0.02015 | 996.168 ± 0.61 | 994.474 ± 0.61 | 992.568 ± 0.61 | 1515.8 ± 1.3 | 1525.6 ± 1.3 | 1534 ± 1.3
m1 = 0.05037 | 997.778 ± 0.6 | 996.073 ± 0.61 | 994.147 ± 0.61 | 1517.8 ± 1.3 | 1527.5 ± 1.3 | 1535.8 ± 1.3
m1 = 0.1008 | 1000.45 ± 0.6 | 998.723 ± 0.6 | 996.764 ± 0.6 | 1521.6 ± 1.3 | 1531.2 ± 1.3 | 1539.4 ± 1.3
m1 = 0.2021 | 1005.75 ± 0.61 | 1003.99 ± 0.6 | 1001.97 ± 0.6 | 1529.5 ± 1.3 | 1538.8 ± 1.3 | 1546.9 ± 1.3
m1 = 0.2959 | 1010.58 ± 0.6 | 1008.79 ± 0.6 | 1006.71 ± 0.6 | 1536 ± 1.3 | 1545.4 ± 1.3 | 1553 ± 1.3
m1 = 0.4 | 1015.86 ± 0.6 | 1014.03 ± 0.6 | 1011.88 ± 0.6 | 1542.5 ± 1.3 | 1551.6 ± 1.3 | 1559.3 ± 1.3
